# From US20230102590A1, “USE OF POLYETHER COMPOUND” (Senju Pharmaceutical Co., Ltd., priority 2020, published 2023)
# Read-outs that look alike come from different tables or passages of the source.
# Legend:
# [1] = Basic solubility at 25° C. in ethanol, PEG 400, propylene glycol (PG) and buffer solution; solubility ratio non-aqueous solvent / buffer solution
# Procedure: In this regard, the buffer solution had the following composition: • 0.2% sodium hydrogen phosphate hydrate • 0.3% sodium dihydrogen phosphate hydrate • sodium hydroxide and hydrochloric acid (suitable amount was added to adjust the pH to 7.0; however, pH was adjusted to 7.4 for cabozantinib and telmisartan).
# However, the following composition was used for rebamipide instead: • 0.05% sodium hydrogen phosphate hydrate • 0.45% sodium dihydrogen phosphate hydrate • sodium hydroxide and hydrochloric acid (suitable amount was added to adjust the pH to 6.0).
# Each compound was measured in the same manner described above. In the Table, the molecular weight and Log P values are reference values (or values calculated from reference values).
# [2] = reference values; pH upon measurement: rebamipide pH 7.0, telmisartan pH 7.4, cilostazol pH 7.0, aprepitant pH 7, cabozantinib pH 7.4; cited from earlier work
# [3] = Procedure: Fujifilm Wako Pure Chemical
# The poorly soluble compound content in the recovered filtrate was measured by liquid chromatography specified below (Shimadzu (Kyoto), high performance liquid chromatograph Prominence).
# As the standard product of triamcinolone acetonide, a reagent from the Pharmaceutical and Medical Device Regulatory Science Society of Japan (Japan) was used. • 50 μL of sample solution and standard solution was measured by liquid chromatography under the following conditions.
# Column temperature: constant temperature of about 40° C. Mobile phase A: 0.1% trifluoroacetic acid/10% acetonitrile solution Mobile phase B: 0.1% trifluoroacetic acid/90% acetonitrile solution Delivery of mobile phase: the ratio of mixture of mobile phase A and mobile phase B was changed as follows to control the linear concentration gradient.
# Detergent: 50% acetonitrile solution Flow rate: 1.0 mL/min Temperature within autosampler: 5° C.
# The following conditions were tested as additives to a poorly soluble compound
# wherein SA+B=solubility of a poorly soluble compound in a composition comprising poloxamer 407 and PEG 4000 SB=solubility of a poorly soluble compound in a composition comprising PEG 4000, but not poloxamer 407 SA=solubility of a poorly soluble compound in a composition comprising poloxamer 407, but not PEG 4000 S0=solubility of a poorly soluble compound in a composition that comprises neither poloxamer 407 nor PEG 4000.
# The solubility in a composition of PEG and poloxamer was measured in the same manner described above for additional compounds.
# For cabozantinib and telmisartan, the pH of the aqueous solution with the base composition described above was changed to 7.4. For rebamipide, the aqueous solution with the base composition was as follow. • 0.05% sodium hydrogen phosphate hydrate • 0.45% sodium dihydrogen phosphate hydrate • sodium hydroxide and hydrochloric acid (suitable amount was added to adjust the pH to 6.0)
# Additional compounds were measured in the same manner described above.
# Cabozantinib and telmisartan were tested with a solution adjusted to a pH of 7.4. Rebamipide was tested with a solution adjusted to a pH of 6.0. Other compounds were tested with a solution adjusted to a pH of 7.0.
# [4] = Stability test: change in pH of poloxamer and/or polyethylene glycol solutions stored at 60° C. for four weeks; settings: for concentration of additive able to stabilize PEG 4000 / concentration of additive able to stabilize poloxamer 407 / stabilization of poloxamer 407 or PEG 4000 by the additive alone: pH change
# Procedure: An additional component was added to an aqueous solution comprising poloxamer and/or polyethylene glycol, and the change in the viscosity and pH was measured over time under harsh conditions of 60° C. The following were used as the poloxamer, polyethylene glycol, and buffer. • Poloxamer 407 (Kolliphor P 407, BASF, Germany) • PEG 4000 (Macrogol 4000, NOF, Tokyo) • Buffer: 0.9% boric acid, 0.1% borax
# The pH was adjusted with hydrochloric acid or sodium hydroxide. […] A polyethylene eye drop bottle was filled with 5 mL of each filtrate and stored in a 60° C. thermostatic vessel. The pH and viscosity of the test solutions as of preparation and at four weeks after storage were measured. The viscosity was measured using a rotational viscometer (Toki Sangyo (Osaka) Model TVE-25 viscometer type L, 25° C., 100 rpm). The pH as of the preparation was measured in the test solution before transferring to an eye drop bottle for storage.
# [5] = assay type: physicochemical
# Procedure: The solubility of a poorly soluble compound was measured by further adding a water-soluble macromolecule.
# DKS Co. Ltd. • SBE-β-CD . . . MedChemExpress LLC • HP-β-CD . . . Fujifilm Wako Pure Chemical
# [6] = 25° C., phosphate buffer pH 7.0
# [7] = 25° C., buffer pH 7.0 (pH 7.4 for cabozantinib and telmisartan; pH 6.0 for rebamipide)
Compound,"Solubility ratio of solvent with respect to buffer solution Ethanol/buffer solution [1, 7]","Solubility ratio of solvent with respect to buffer solution PEG400/buffer solution [1, 7]","Solubility ratio of solvent with respect to buffer solution PG/buffer solution [1, 7]",Solubility scale factor at 5° C. 30% PEG 4000/10% poloxamer 407 [3],Solubility scale factor at 15° C. 30% PEG 4000/10% poloxamer 407 [3],Log P [2],other results
O=C1Nc2ccc(Cl)cc2[C@@](C#CC2CC2)(C(F)(F)F)O1 [Efavirenz],,,,,,5.40,"Solubility, PG (propylene glycol) ([1]; 25° C.): 48.3%; Solubility, Buffer solution [1, 6]: 0.0007278%; state of the test composition [3]: converted into gel"
"O=C(O)CN(CCN(CC(=O)O)CC(=O)O)CC(=O)O [EDTA, ethylenediaminetetraacetic acid]",,,,,,,"stabilization effect on low molecular weight PEG 400 ([4]; 0.1% additive): exhibited a stabilization effect; amount of PEG 4000 that the additive was able to stabilize ([4]; 0.1% additive, four weeks at 60° C.): up to 20%; concentration of additive able to stabilize PEG 4000 ([4]; four weeks at 60° C.): ≥ 0.1%; concentration of additive able to stabilize poloxamer 407 ([4]; four weeks at 60° C.): 0.01%"
O=S([O-])S(=O)(=O)[O-].[Na+].[Na+] [sodium pyrosulfite],,,,,,,stabilization of poloxamer 407 or PEG 4000 by the additive alone ([4]; four weeks at 60° C.): could not stabilize poloxamer 407 or PEG 4000
O=S([O-])[O-].[Na+].[Na+] [sodium sulfite],,,,,,,stabilization of poloxamer 407 or PEG 4000 by the additive alone ([4]; four weeks at 60° C.): could not stabilize poloxamer 407 or PEG 4000
O=S([O-])([O-])=S.[Na+].[Na+] [Sodium thiosulfate],,,,,,,concentration of additive able to stabilize PEG 4000 ([4]; four weeks at 60° C.): 0.01%; concentration of additive able to stabilize poloxamer 407 ([4]; four weeks at 60° C.): 0.03%
carboxymethyl cellulose [CMC],,,,,,,effect of the addition on solubility of celecoxib in PEG/poloxamer composition [5]: improved solubility overall; effect on dissolution of a poorly soluble compound due to poloxamer 407 and PEG 4000 [5]: tendency to further assist dissolution
C[C@@H](O[C@H]1OCCN(Cc2n[nH]c(=O)[nH]2)[C@H]1c1ccc(F)cc1)c1cc(C(F)(F)F)cc(C(F)(F)F)c1 [Aprepitant],129308.39,60601.21,43995.44,1377.77,236.00,4.8 ± 0.1,"Solubility, Ethanol [1]: 2.483%"
OC[C@@H](O)[C@@H](O)[C@H](O)[C@H](O)CO [Mannitol],,,,,,,stabilization of poloxamer 407 or PEG 4000 by the additive alone ([4]; four weeks at 60° C.): could not stabilize poloxamer 407 or PEG 4000
hydroxypropyl-β-cyclodextrin [HP-β-CD],,,,,,,effect of the addition on solubility of celecoxib in PEG/poloxamer composition [5]: hardly improved the solubility
CC1(C)O[C@@H]2C[C@H]3[C@@H]4C[C@H](F)C5=CC(=O)C=C[C@]5(C)[C@@]4(F)[C@@H](O)C[C@]3(C)[C@]2(C(=O)CO)O1 [Fluocinolone acetonide],2685.78,1803.78,2007.24,19.75,18.27,2.48,"Solubility, Ethanol ([1]; 25° C.): 4.635%; Solubility, PG (propylene glycol) ([1]; 25° C.): 3.224%"
COc1cc2nccc(Oc3ccc(NC(=O)C4(C(=O)Nc5ccc(F)cc5)CC4)cc3)c2cc1OC [Cabozantinib],1949439.39,25935652.78,1213400.25,288.38,74.57,3.92,
sulfobutylether-β-cyclodextrin [SBE-β-CD],,,,,,,effect of the addition on solubility of celecoxib in PEG/poloxamer composition [5]: improved solubility overall; effect on dissolution of a poorly soluble compound due to poloxamer 407 and PEG 4000 [5]: further improved the dissolution
Cc1ccc(-c2cc(C(F)(F)F)nn2-c2ccc(S(N)(=O)=O)cc2)cc1 [Cel ? coxib],80774.38,371931.96,28507.07,686.99,183.33,,
Brc1cccc2c1oc1ccccc12 [4-bromadibenzofuran],426955.49,1693721.20,106519.51,793.72,1.61,,
O=C1Nc2ccc(Cl)cc2[C@@](C#CC2CC2)(C(F)(F)F)O1 [Efavir ? nt],101607.44,96901.18,66368.13,14.23,1.97,,
O=C1CCc2cc(OCCCCc3nnnn3C3CCCCC3)ccc2N1 [Cilostazol],761.36,1146.93,761.23,8.97,10.22,2.76,"Solubility, PEG400 ([1]; 25° C.): 0.4342%"

# More lines, main results first:
"Solubility ratio of solvent with respect to buffer solution Ethanol/buffer solution [1, 7]","Solubility ratio of solvent with respect to buffer solution PEG400/buffer solution [1, 7]","Solubility ratio of solvent with respect to buffer solution PG/buffer solution [1, 7]",Solubility scale factor at 5° C. 30% PEG 4000/10% poloxamer 407 [3],Solubility scale factor at 15° C. 30% PEG 4000/10% poloxamer 407 [3],Compound,Log P [2],other results
2.67,5.41,4.88,1.13,1.07,O=C(NC(Cc1cc(=O)[nH]c2ccccc12)C(=O)O)c1ccc(Cl)cc1 (stereo not drawn) [Rebamipide],−0.22,"Solubility, Ethanol ([1]; 25° C.): 0.06615%; Solubility, Buffer solution ([1]; 25° C., phosphate buffer adjusted to pH 6.0 (rebamipide)): 0.02473%; solubilization of compound due to poloxamer 407 by an addition of PEG 4000 [3]: lowest"
287.77,431.18,120.32,2.03,1.71,CCCc1nc2c(C)cc(-c3nc4ccccc4n3C)cc2n1Cc1ccc(-c2ccccc2C(=O)O)cc1 [Telmisartan],3.2,
,,,144.99,31.62,Cc1cn(-c2cc(NC(=O)c3ccc(C)c(Nc4nccc(-c5cccnc5)n4)c3)cc(C(F)(F)F)c2)cn1 [Nilotinib],,Solubility ratio of solvent with respect to buffer solution Ethanol/buffer solution [1]: 1623663.73; Solubility ratio of solvent with respect to buffer solution PEG400/buffer solution [1]: 7100339.79; Solubility ratio of solvent with respect to buffer solution PG/buffer solution [1]: 1437221.83
2004388.60,7691626.26,1186517.97,182.78,114.87,CNC(=O)c1cc(Oc2ccc(NC(=O)Nc3ccc(Cl)c(C(F)(F)F)c3)c(F)c2)ccn1 [Regorafenib],,"Solubility, Buffer solution [1, 6]: 0.0000004174%"
